Measured values from paper PMC7576608, “Mechanisms of telomerase inhibition by oxidized and therapeutic dNTPs” (Nature Communications, 2020).
“And” between values parts separate entries of the source, which are not always exact repeats. Identical values can stand only once. Like-named read-outs stand apart in the source and are kept apart here.

Experiments:
tcTERT [1] = biological target: T1, tcTERT (Tribolium castaneum, UniProt Q0QHL8); assay: Pre-steady-state single-turnover kinetics of tcTERT single nucleotide insertion; assay type: biochemical; set-up: tcTERT kobs: unit not given here; conditions: for Fold change: catalytic efficiency relative to dGTP
Source text: In order to better understand the ability of modified dNTPs to compete with natural dNTPs for telomerase utilization, we added modified dNTPs to reactions containing all four natural dNTPs. […] The calculated IC50 determines the concentration required to reduce repeat processivity in the bulk reactions by half. However, it is important to note that bulk experiments cannot distinguish effects on individual telomeres, since extended telomeres mask unextended telomeres. Incorporation of a chain terminator during any step will terminate extension of the affected telomere, and just five critically short telomeres are sufficient to trigger senescence. Therefore, repeat processivity IC50 values are not necessarily an indicator of the inhibitory potency, but provide information on selectivity for modified dNTPs compared to natural dNTPs. […] The ability to purify sufficient quantities of tcTERT enables characterization of the catalytic nucleotide addition by pre-steady-state single turnover kinetics using a defined DNA–RNA primer–template substrate. The catalytic efficiency of incorporating a single dNTP is measured by dividing the observed nucleotide incorporation rate constant, kpol, by the equilibrium dissociation constant for dNTP binding to the tcTERT–primer–template complex (Kd)[44].
Pre-steady-state kinetic parameters of tcTERT were obtained using established pre-steady-state kinetics protocols for DNA polymerases, also known as single turnover kinetics[70],[71]. Briefly, we preincubated 2 μM tcTERT with 200 nM annealed DNA:RNA hybrid substrate, with a 6-FAM label on the 5′ end of the DNA component. We then used a KinTek RQF-3 (a rapid quench-flow instrument) to mix equal ratios of the incoming nucleotide triphosphate and 10 mM MgCl2 with the existing mix of tcTERT and its DNA:RNA hybrid substrate. Reactions were run at 37 °C and quenched at various timepoints with 100 mM EDTA pH 7.5. […] After each reaction, the samples were transferred to a DNA gel loading buffer, containing 100 mM EDTA, 80% deionized formamide, 0.25 mg ml^−1 bromophenol blue, and 0.25 mg ml^−1 xylene cyanol. These mixes were then incubated at 95 °C for 5 min, and loaded onto a 21% denaturing polyacrylamide gel. These gels were run at 700 V, […], and 30 W at 30 °C in order to separate the reaction product from its substrate.
Means and standard deviations from at least three independent replicates were calculated, and graphed using KaleidaGraph version 4.5.2. Plots of product formation over time were fit to the exponential equation (1) to determine kobs values:1 P=A(1−e^−kobst).
In which [P] is the concentration of the product, A is the target engagement (amplitude), and t is the reaction time. After kobs values were determined for multiple nucleotide triphosphate concentrations, the data was replot to compare kobs to concentration of nucleotide triphosphate, and fit to Eq. (2):2 kobs=kpol[NTP]/Kd+[NTP]. with kpol representing the theoretical maximum value of kobs, and [NTP] representing the concentration of the nucleotide of interest.

tcTERT [2] = biological target: T1, tcTERT; conditions: cited from earlier work
polymerase β = polymerase β (Homo sapiens, UniProt P06746); assay: Polymerase β dGTP run-on assay; assay type: biochemical; conditions: 50 or 200 μM dGTP
Experimental: These mixes were then incubated at 95 °C for 5 min, and loaded onto a 21% denaturing polyacrylamide gel. These gels were run at 700 V, […], and 30 W at 30 °C in order to separate the reaction product from its substrate.
Supplementary Fig 4. Time course reactions with telomerase or pol β. (a, b) Telomerase reactions were conducted with 5 nM 32P-end labeled primer (a) Primer 4 (GTTAGG)3 or (b) Primer 2 (GGTTAG)3.
Products were separated on denaturing gels. Letters on the right indicate the template base; P indicates unextended 18-mer primer. Graphs represent the percent primer extended for the reactions in panels a and b from one experiment. ( c, d) Primer extension by human polymerase b. The double stranded 6- […]
reactions were run on denaturing gels and imaged using a Typhoon phosphoimager. P indicates unextended 13-mer primer from three independent experiments. Source data are provided as a Source […]

[3] = dNTP binding to tcTERT-primer-template complex

T1 sequence (Q0QHL8 entry or part of it): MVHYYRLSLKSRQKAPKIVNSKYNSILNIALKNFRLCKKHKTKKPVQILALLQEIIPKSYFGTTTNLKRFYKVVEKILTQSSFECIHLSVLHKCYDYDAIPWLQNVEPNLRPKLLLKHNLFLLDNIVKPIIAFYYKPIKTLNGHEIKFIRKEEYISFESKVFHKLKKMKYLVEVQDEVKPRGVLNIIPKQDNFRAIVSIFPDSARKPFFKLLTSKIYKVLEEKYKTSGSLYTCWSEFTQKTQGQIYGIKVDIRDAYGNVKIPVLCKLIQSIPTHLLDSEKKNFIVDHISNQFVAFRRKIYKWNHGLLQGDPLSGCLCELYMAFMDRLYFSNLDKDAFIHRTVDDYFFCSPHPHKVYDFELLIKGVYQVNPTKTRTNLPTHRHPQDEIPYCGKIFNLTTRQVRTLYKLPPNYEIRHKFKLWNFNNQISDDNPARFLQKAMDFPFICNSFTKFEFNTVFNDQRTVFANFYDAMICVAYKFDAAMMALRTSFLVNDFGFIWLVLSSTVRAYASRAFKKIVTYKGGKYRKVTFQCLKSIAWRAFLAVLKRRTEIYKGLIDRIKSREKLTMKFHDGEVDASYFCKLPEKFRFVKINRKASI

Q: With Nc1nc2c(ncn2C2CC(O)C(COP(=O)(O)OP(=O)(O)OP(=O)(O)O)O2)c(=S)[nH]1 (stereo not shown) [6-thio-dGTP] as the compound, how does the tcTERT kobs (tcTERT [1]; [6-thio-dGTP] 0.5 uM, Mean) read?
A: 0.024

Q: And the tcTERT kobs (tcTERT [1]; [6-thio-dGTP] 0.5 uM, single replicates)?
A: 0.020 and 0.017 and 0.037

Q: And the tcTERT kobs (tcTERT [1]; [6-thio-dGTP] 1 uM, Mean)?
A: 0.036

Q: And the tcTERT kobs (tcTERT [1]; [6-thio-dGTP] 1 uM, single replicates)?
A: 0.046 and 0.026 and 0.035

Q: What about the tcTERT kobs (tcTERT [1]; [6-thio-dGTP] 3 uM, Mean) of the same compound?
A: 0.084

Q: What about the tcTERT kobs (tcTERT [1]; [6-thio-dGTP] 3 uM, single replicates) of the same compound?
A: 0.093 and 0.083 and 0.076

Q: What about the tcTERT kobs (tcTERT [1]; [6-thio-dGTP] 5 uM, Mean) of the same compound?
A: 0.142

Q: What about the tcTERT kobs (tcTERT [1]; [6-thio-dGTP] 5 uM, single replicates) of the same compound?
A: 0.256 and 0.136 and 0.070 and 0.105

Q: And the tcTERT kobs (tcTERT [1]; [6-thio-dGTP] 7 uM, Mean)?
A: 0.143

Q: And the tcTERT kobs (tcTERT [1]; [6-thio-dGTP] 7 uM, single replicates)?
A: 0.232 and 0.073 and 0.125

Q: And the tcTERT kobs (tcTERT [1]; [6-thio-dGTP] 10 uM, Mean)?
A: 0.239

Q: And the tcTERT kobs (tcTERT [1]; [6-thio-dGTP] 10 uM, single replicates)?
A: 0.389 and 0.333 and 0.126 and 0.109

Q: What about the tcTERT kobs (tcTERT [1]; [6-thio-dGTP] 15 uM, Mean) of the same compound?
A: 0.330

Q: What about the tcTERT kobs (tcTERT [1]; [6-thio-dGTP] 15 uM, single replicates) of the same compound?
A: 0.523 and 0.151 and 0.314

Q: What about the tcTERT kobs (tcTERT [1]; [6-thio-dGTP] 20 uM, Mean) of the same compound?
A: 0.552

Q: What about the tcTERT kobs (tcTERT [1]; [6-thio-dGTP] 20 uM, single replicates) of the same compound?
A: 0.535 and 0.464 and 0.603 and 0.606

Q: What about the tcTERT kobs (tcTERT [1]; [6-thio-dGTP] 25 uM, Mean) of the same compound?
A: 0.632

Q: And the tcTERT kobs (tcTERT [1]; [6-thio-dGTP] 25 uM, single replicates)?
A: 0.411 and 0.737 and 0.749

Q: And the tcTERT kobs (tcTERT [1]; [6-thio-dGTP] 40 uM, Mean)?
A: 0.951

Q: And the tcTERT kobs (tcTERT [1]; [6-thio-dGTP] 40 uM, single replicates)?
A: 0.795 and 1.041 and 1.018

Q: And the tcTERT kobs (tcTERT [1]; [6-thio-dGTP] 50 uM, Mean)?
A: 1.139

Q: And the tcTERT kobs (tcTERT [1]; [6-thio-dGTP] 50 uM, single replicates)?
A: 1.051 and 1.270 and 1.096

Q: What about the tcTERT kobs (tcTERT [1]; [6-thio-dGTP] 75 uM, Mean) of the same compound?
A: 1.424

Q: What about the tcTERT kobs (tcTERT [1]; [6-thio-dGTP] 75 uM, single replicates) of the same compound?
A: 1.281 and 1.438 and 1.554

Q: And the tcTERT kobs (tcTERT [1]; [6-thio-dGTP] 100 uM, Mean)?
A: 1.760

Q: What about the tcTERT kobs (tcTERT [1]; [6-thio-dGTP] 100 uM, single replicates) of the same compound?
A: 1.806 and 1.680 and 1.793

Q: What about the tcTERT kobs (tcTERT [1]; [6-thio-dGTP] 150 uM, Mean) of the same compound?
A: 1.896

Q: And the tcTERT kobs (tcTERT [1]; [6-thio-dGTP] 150 uM, single replicates)?
A: 1.870 and 2.039 and 1.778

Q: What about the Fold change (tcTERT [1]) of the same compound?
A: 0.579

Q: What about the Kd (tcTERT [1]; [3]) of the same compound?
A: 92.4 ± 12.9 µM

Q: What about the kpol (tcTERT [1]; single nucleotide insertion, 37 °C) of the same compound?
A: 3.1 ± 0.23 s⁻¹

Q: Which results are given for Nc1nc2c(ncn2C2CC(O)C(COP(=O)(O)OP(=O)(O)OP(=O)(O)O)O2)c(=O)[nH]1 (stereo not shown) [dGTP]?
A: Kd (tcTERT [2]; [3]): 18.1 ± 3.78 µM; Catalytic efficiency (kpol/Kd) (tcTERT [2]; single nucleotide insertion): 58000 ± 12000 M⁻¹ s⁻¹; kpol (tcTERT [2]; single nucleotide insertion): 1.1 ± 0.03 s⁻¹; Laddering or misincorporation by DNA polymerase β (in words) (polymerase β): no evidence of dGTP laddering or misincorporation opposite template A; Fold higher catalytic efficiency of dGTP compared to 6-thio-dGTP (tcTERT [1]): 2 fold; Fold change (tcTERT [1]): 1.000
